Columns and labels:
[1] = with piperine; cited from earlier work
[2] = concurrent administration of 2 g of curcumin and 5 mg of piperine; cited from earlier work
Caco-2 cell monolayer = Caco-2 cell monolayer permeability assay with LC-MS/MS analysis; details: 2-hour permeability experiment

SMILES	increase of bioavailability of curcumin [1] [folds]	increase in curcumin's bioavailability [2]	Papp classification (Caco-2 cell monolayer)
COc1cc(/C=C/C(=O)CC(=O)/C=C/c2ccc(O)c(OC)c2)ccc1O [curcumin]	20	approximately a twofold increase	–
CC(C)NCC(O)COc1cccc2ccccc12 (stereo not drawn) [propranolol]	–	–	high

From paper PMC10838102 (Journal of Experimental Pharmacology, 2024)
